Patent US20200085828A1, “PHOSPHODIESTERASE INHIBITORS AND METHODS OF MICROBIAL TREATMENT” (Mavupharma, Inc., priority 2016, published 2020)

Experiments:
[1] = test system: cGAMP activated THP-1 cells; assay: PDE inhibitor library screen on cGAMP activated THP-1 cells, IFNβ ELISA; format: cell-based, human; details: 10 μM compound, suboptimal 2′,3′-cGAMP, 24 hours
Experimental: THP-1 Cell Activation and Screening of Test Compounds: • (a) THP-1 cells from bulk cultures were counted and suspended in RPMI 1640, 20% FBS, 2.5 mM L-alanyl-L-glutamine at a concentration of 5.5×10^6 cells/mL. The THP-1 cells were subsequently seeded into 96 well round bottom plates—volume of 180 μL/well (1×10^6 cells per well), and the plate was incubated for 1 hour at 37° C., 5% CO2. • (b) Test compounds comprising known phosphodiesterase inhibitors (PDEs), were screened in triplicate (N1, N2, N3) on THP-1 cells. For compound screening, test compounds were assayed at a final concentration of 10 μM. A 200 μM (0.2 mM) working solution of each compound was prepared by diluting 10 mM DMSO stock solutions of each compound in media at a dilution of 50:1 (1640, 20% FBS, 2.5 mM L-alanyl-L-glutamine). […]
(i) Cell culture supernatants were harvested by centrifuging the plates at 200×g for 10 minutes. Cell culture supernatants were then transferred to a clean plate and stored at −80° C. until ready to analyze for IFNβ levels. • (j) IFNβ levels in cell culture supernatants were determined by ELISA according to the manufacturer's instructions (VeriKine Human IFNβ Assay). • (k) The interpolated data was normalized to vehicle control, or unstimulated control, and analyzed.

[2] = molecular target: T1, human recombinant ENPP1 (Homo sapiens, UniProt P22413); assay: ENPP1 inhibition with 2′,3′-cGAMP substrate (AMP-Glo assay); format: biochemical; details: for inhibition at 1 µM: at 1 μM compound; for inhibition at 1 µM / inhibition at 10 µM: read-out: Inhibition of ENPP1 with cGAMP as the Substrate; for inhibition at 10 µM: at 10 μM compound; for Ki: 20 μM 2′3′cGAMP, Ki from IC50 by Cheng-Prusoff, Km 15 μM
T1 sequence (P22413 1-925): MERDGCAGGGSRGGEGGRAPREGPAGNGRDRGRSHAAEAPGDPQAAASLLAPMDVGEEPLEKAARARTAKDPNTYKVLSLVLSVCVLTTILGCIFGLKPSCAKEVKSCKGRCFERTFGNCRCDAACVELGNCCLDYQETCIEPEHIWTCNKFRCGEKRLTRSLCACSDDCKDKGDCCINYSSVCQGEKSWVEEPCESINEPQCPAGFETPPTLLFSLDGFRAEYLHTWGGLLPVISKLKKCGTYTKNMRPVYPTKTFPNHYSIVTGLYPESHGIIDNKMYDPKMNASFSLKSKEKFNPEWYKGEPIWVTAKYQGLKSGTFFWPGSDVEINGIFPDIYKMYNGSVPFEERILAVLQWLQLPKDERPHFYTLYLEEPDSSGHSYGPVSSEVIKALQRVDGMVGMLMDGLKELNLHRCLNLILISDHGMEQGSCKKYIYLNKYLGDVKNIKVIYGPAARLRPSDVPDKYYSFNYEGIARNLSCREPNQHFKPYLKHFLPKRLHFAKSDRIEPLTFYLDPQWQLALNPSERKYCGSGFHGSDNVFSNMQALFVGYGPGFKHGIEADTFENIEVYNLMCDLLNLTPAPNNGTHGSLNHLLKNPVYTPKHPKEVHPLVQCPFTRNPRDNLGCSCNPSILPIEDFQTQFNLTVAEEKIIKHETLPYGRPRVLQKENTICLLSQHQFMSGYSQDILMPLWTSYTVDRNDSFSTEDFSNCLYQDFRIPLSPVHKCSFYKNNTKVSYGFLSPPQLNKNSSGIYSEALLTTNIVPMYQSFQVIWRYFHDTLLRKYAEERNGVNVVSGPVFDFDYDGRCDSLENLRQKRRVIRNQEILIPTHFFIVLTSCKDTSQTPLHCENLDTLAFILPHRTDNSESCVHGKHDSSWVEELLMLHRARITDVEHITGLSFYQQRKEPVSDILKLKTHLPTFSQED
Experimental: The AMP-Glo™ Assay Kit contains two reagents that are added sequentially. The first converts the 5′-AMP produced in the reaction to 5′ADP. The second converts the 5′-ADP to 5′ATP and reacts the 5′-ATP with the luciferase/luciferin pair to produce the luminescence signal. […] Inhibitors are added at final concentrations ranging between 10 μM and 30 pM depending on the compound. Duplicate wells are run at each inhibitor concentration. The final assay volume is 18 μL and human recombinant ENPP1 is present at 5 ng/well. The assay is initiated by the addition of substrate (20 μM 2′3′cGAMP final concentration), and incubated for 30 minutes at 37° C. To stop the reaction, 12 μl of AMP-Glo reagent I is added and the plate is incubated for 60 minutes at room temperature. 25 μl of AMP-detection reagent is then added and the wells are again incubated for 60 minutes at room temperature. The luminescence signal is then measured using a plate-reading luminometer. Each assay plate also includes wells with no enzyme added (MIN OD) and wells with no inhibitor added (MAX OD). The percent inhibition of ENPP1 for each sample is then calculated as: […]
IC50 values of compounds were calculated by entering the percent inhibition values into a sigmoidal variable slope nonlinear regression model in GraphPad Prism® software. IC50 values were converted to Ki values using the Cheng-Prusoff equation2 where the Km was 15 μM, based on internal determinations.

[3] = molecular target: T1, human recombinant ENPP1; assay: ENPP1 inhibition with AMP-pNP (ATP analog) substrate, absorbance at 405 nm; format: biochemical; details: 300 μM AMP-pNP; Ki from IC50 by Cheng-Prusoff, Km 151 μM
Experimental: The ENPP1 assay with AMP-pNP substrate is conducted in a buffer containing 50 mM Tris-HCl (pH 8.5)/250 mM NaCl/0.5 mM CaCl2/1 μM ZnCl2/0.1% DMSO. Inhibitors are added at final concentrations ranging between 10 μM and 30 pM depending on the compound. Duplicate wells are run at each inhibitor concentration. The final assay volume is 40 μL and human recombinant ENPP1 is present at 60 ng/well. The assay is initiated by the addition of substrate (300 μM AMP-pNP final concentration), and incubated for 20 minutes at 37° C. […] Each assay plate also includes wells with no enzyme added (MIN OD) and wells with no inhibitor added (MAX OD). The percent inhibition of ENPP1 for each sample is then calculated as: […]
IC50 values of compounds were calculated by entering the percent inhibition values into a sigmoidal variable slope nonlinear regression model in GraphPad Prism® software.

O=c1cc(-c2ccc(O)c(O)c2)oc2cc(O)cc(O)c12 [Compound 1]
augmentation of cGAMP mediated IFNβ production [1]: augmentation of cGAMP mediated IFNβ production

COc1ccc(NC(=O)CSc2nc3c(N)ncnc3[nH]2)cc1OC [Compound 2]
inhibition at 1 µM [2]: 99% | inhibition at 10 µM [2]: 99%

COc1cc2ncnc(N3CCC(CCNS(N)(=O)=O)CC3)c2cc1OC [Compound 3]
inhibition at 1 µM [2]: 99% | inhibition at 10 µM [2]: 99% | augmentation of cGAMP mediated IFNβ production [1]: augmentation of cGAMP mediated IFNβ production

COc1ccc(CC(=O)CCC2=Nc3c(N)ccnc3C2)cc1OC [Compound 4]
Substrate Selectivity Ki Ratio AMP-pNP/2′3′cGAMP ([2]; Ki (AMP-pNP)/Ki (2′3′-cGAMP)): >37500 | selectivity for inhibition of cGAMP over AMP-pNP hydrolysis by ENPP1 ([2]; Ki (AMP-pNP)/Ki (2′3′-cGAMP)): > 37,500 fold

COc1cc2ncnc(N3CCC(CCN)CC3)c2cc1OC [Compound 5]
Ki [2]: 46.7 nM

COc1cc2nccc(Oc3ccc(CS(N)(=O)=O)cc3)c2cc1OC [Compound 6]
Substrate Selectivity Ki Ratio AMP-pNP/2′3′cGAMP ([2]; Ki (AMP-pNP)/Ki (2′3′-cGAMP)): >325

Cn1cnc2cccc(N3CCC(CCCS(C)(=O)=O)CC3)c21 [Compound 9]
Substrate Selectivity Ki Ratio AMP-pNP/2′3′cGAMP ([2]; Ki (AMP-pNP)/Ki (2′3′-cGAMP)): >128

CCN(C)S(=O)(=O)NCCC1CCN(c2ncnc3cc(OC)c(OC)cc23)CC1 [Compound 12]
Ki [2]: 336 nM

COc1cc2nccc(Nc3ccc(NS(=O)(=O)c4ccccc4)cc3)c2cc1OC [Compound 14]
Ki [3]: 1830 nM | Ki [2]: 29.1 nM

COc1cc2ncn(-c3ccc(CNS(N)(=O)=O)cc3)c2cc1OC [Compound 16]
Ki [3]: 1460 nM | Ki [2]: 27.1 nM

COc1cc2ncnc(-c3ccc4c(c3)CN(S(N)(=O)=O)CC4)c2cc1OC [Compound 21]
Ki [3]: 65.2 nM | Ki [2]: 1.8 nM

COc1cc2nc(-c3cccnc3)nc(N3CCC(CCNS(C)(=O)=O)CC3)c2cc1OC [Compound 23]
Substrate Selectivity Ki Ratio AMP-pNP/2′3′cGAMP ([2]; Ki (AMP-pNP)/Ki (2′3′-cGAMP)): >23.9

COc1cc2ncnc(N3CCC4(CC3)CN(S(N)(=O)=O)C4)c2cc1OC [Compound 24]
Substrate Selectivity Ki Ratio AMP-pNP/2′3′cGAMP ([2]; Ki (AMP-pNP)/Ki (2′3′-cGAMP)): 18.7

COc1cc2nccc(Oc3ccc(NS(=O)(=O)c4ccccc4)cc3)c2cc1OC [Compound 25]
Ki [2]: 44 nM
